# Tests used:
# [1] = tested on: Bacteria: Escherichia coli, Staphylococcus aureus, Pseudomonas aeruginosa, Pseudomonas putida, Burkholderia cepacia, Alcaligenes faecalis; test: Preservation test with periodic inoculation, bacteria assessment; format: cell-based; settings: for 60 d 40° C., bact. assess., 4th inoculation: sample stored 60 d at 40° C.; for Start sample measurement, bact. assess., 4th inoculation: freshly formulated
# In short: (§1)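 Semiquantitative growth scores (−− no growth to ++ strong growth) from weekly agar streaks incubated 3 days at 25 °C. Preserved polymer samples got four weekly 0.5 ml inoculations (titer 10^9 organisms/ml), the first two days after preservative addition; testing began fresh and after 60-day storage at 40 °C.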
# [2] = Iodine color number according to DIN 6162:2014-09; format: physicochemical
# [3] = tested on: Yeast: Candida albicans, Candida valida, Rhodotorula rura, Saccharomyces cerevisiae; test: Preservation test with periodic inoculation, yeast assessment; format: cell-based; settings: for Start sample measurement, yeast assess., 4th inoculation: freshly formulated; for 60 d 40° C., yeast assess., 4th inoculation: sample stored 60 d at 40° C.
# In short: as §1
# [4] = Physical stability; visual assessment (color, turbidity, phase separation); format: physicochemical; set-up: key: ++: no discernible change with respect to color, turbidity or phase separation; +: marginal change in color number, somewhat increased Tyndall effect but no turbidity; 0: easily discernible increase in color number and moderate turbidity−no phase separation; −: turbidity and change in color number readily discernible by visual assessment; −−: strong color change with strong turbidity and incipient phase separation
# In short: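 Scoring was by eye on a scale from ++ to −−, where ++ means no change and −− means strong color change, strong turbidity and incipient phase separation. Color, turbidity and phase separation were the criteria.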
# [5] = Polymer P5 (HP56) with stabilizer
smiles,measurement,setting,value
"CCCCCCCCn1sccc1=O [OIT, octylisothiazolinone]","60 d 40° C., bact. assess., 4th inoculation",[1]; Polymer P1,+
same,"60 d 40° C., bact. assess., 4th inoculation",[1]; Polymer P2,+
same,"60 d 40° C., bact. assess., 4th inoculation",[1]; Polymer P3,++
same,"Start sample measurement, bact. assess., 4th inoculation",[1]; Polymer P4,"− (slight growth, max. 100 colonies)"
same,"60 d 40° C., bact. assess., 4th inoculation",[1]; Polymer P4,++
same,"Start sample measurement, bact. assess., 4th inoculation",[1]; Polymer P5 (HP56),"− (slight growth, max. 100 colonies)"
same,"60 d 40° C., bact. assess., 4th inoculation",[1]; Polymer P5 (HP56),++
same,"Start sample measurement, bact. assess., 4th inoculation",[1]; Polymer P6,"− (slight growth, max. 100 colonies)"
same,"60 d 40° C., bact. assess., 4th inoculation",[1]; Polymer P6,++
same,"Start sample measurement, bact. assess., 4th inoculation",[1]; Polymer P7,"− (slight growth, max. 100 colonies)"
same,"60 d 40° C., bact. assess., 4th inoculation",[1]; Polymer P7,++
same,"60 d 40° C., bact. assess., 4th inoculation",[1]; Polymer P8,+
same,"60 d 40° C., bact. assess., 4th inoculation",[1]; Polymer P9,++
same,"Iodine color number, 60 d 40° C.",[2]; Polymer P1 with stabilizer,5.9
same,"Iodine color number, start",[2]; Polymer P1 with stabilizer,2.8
same,"Iodine color number, 60 d 40° C.",[2]; Polymer P2 with stabilizer,8.0
same,"Iodine color number, start",[2]; Polymer P2 with stabilizer,3.0
same,"Iodine color number, 60 d 40° C.",[2]; Polymer P3 with stabilizer,9.2
same,"Iodine color number, start",[2]; Polymer P3 with stabilizer,3.3
same,"Iodine color number, 60 d 40° C.",[2]; Polymer P4 with stabilizer,9.7
same,"Iodine color number, start",[2]; Polymer P4 with stabilizer,3.3
same,"Iodine color number, 60 d 40° C.",[2]; [5],9.7
same,"Iodine color number, start",[2]; [5],3.4
same,"Iodine color number, 60 d 40° C.",[2]; Polymer P6 with stabilizer,9.7
same,"Iodine color number, start",[2]; Polymer P6 with stabilizer,3.4
same,"Iodine color number, 60 d 40° C.",[2]; Polymer P7 with stabilizer,9.7
same,"Iodine color number, start",[2]; Polymer P7 with stabilizer,3.4
same,"Iodine color number, 60 d 40° C.",[2]; Polymer P8 with stabilizer,10.0
same,"Iodine color number, start",[2]; Polymer P8 with stabilizer,3.3
same,"Iodine color number, 60 d 40° C.",[2]; Polymer P9 with stabilizer,15.5
same,"Iodine color number, start",[2]; Polymer P9 with stabilizer,4.0
same,"Start sample measurement, yeast assess., 4th inoculation",[3]; Polymer P1,"− (slight growth, max. 100 colonies)"
same,"60 d 40° C., yeast assess., 4th inoculation",[3]; Polymer P1,+
same,"Start sample measurement, yeast assess., 4th inoculation",[3]; Polymer P2,"− (slight growth, max. 100 colonies)"
same,"60 d 40° C., yeast assess., 4th inoculation",[3]; Polymer P2,++
same,"Start sample measurement, yeast assess., 4th inoculation",[3]; Polymer P3,"0 (moderate growth, max. 400 colonies)"
same,"60 d 40° C., yeast assess., 4th inoculation",[3]; Polymer P3,++
same,"Start sample measurement, yeast assess., 4th inoculation",[3]; Polymer P4,"0 (moderate growth, max. 400 colonies)"
same,"60 d 40° C., yeast assess., 4th inoculation",[3]; Polymer P4,++
same,"Start sample measurement, yeast assess., 4th inoculation",[3]; Polymer P5 (HP56),"0 (moderate growth, max. 400 colonies)"
same,"60 d 40° C., yeast assess., 4th inoculation",[3]; Polymer P5 (HP56),++
same,"Start sample measurement, yeast assess., 4th inoculation",[3]; Polymer P6,"0 (moderate growth, max. 400 colonies)"
same,"60 d 40° C., yeast assess., 4th inoculation",[3]; Polymer P6,++
same,"Start sample measurement, yeast assess., 4th inoculation",[3]; Polymer P7,"0 (moderate growth, max. 400 colonies)"
same,"60 d 40° C., yeast assess., 4th inoculation",[3]; Polymer P7,++
same,"Start sample measurement, yeast assess., 4th inoculation",[3]; Polymer P8,"− (slight growth, max. 100 colonies)"
same,"60 d 40° C., yeast assess., 4th inoculation",[3]; Polymer P8,+
same,"Start sample measurement, yeast assess., 4th inoculation",[3]; Polymer P9,"− (slight growth, max. 100 colonies)"
same,"60 d 40° C., yeast assess., 4th inoculation",[3]; Polymer P9,++
same,"Physical stability, 60 d 40° C.*",[4]; Polymer P1 with stabilizer,−−
same,"Physical stability, 60 d 40° C.*",[4]; Polymer P2 with stabilizer,−−
same,"Physical stability, 60 d 40° C.*",[4]; Polymer P3 with stabilizer,−−
same,"Physical stability, 60 d 40° C.*",[4]; Polymer P4 with stabilizer,−−
same,"Physical stability, 60 d 40° C.*",[4]; [5],−−
same,"Physical stability, 60 d 40° C.*",[4]; Polymer P6 with stabilizer,−−
same,"Physical stability, 60 d 40° C.*",[4]; Polymer P7 with stabilizer,−−
same,"Physical stability, 60 d 40° C.*",[4]; Polymer P8 with stabilizer,−−
same,"Physical stability, 60 d 40° C.*",[4]; Polymer P9 with stabilizer,−−
"CCCCCCCCCCCCCCCC[N+](C)(C)Cc1ccccc1.[Cl-] [Polymer 16-BAC, cetylalkonium chloride]","60 d 40° C., bact. assess., 4th inoculation",[1]; Polymer P4,"− (slight growth, max. 100 colonies)"
same,"Iodine color number, 60 d 40° C.",[2]; Polymer P1 with stabilizer,2.7
same,"Iodine color number, start",[2]; Polymer P1 with stabilizer,2.6
same,"Iodine color number, 60 d 40° C.",[2]; Polymer P2 with stabilizer,3.1
same,"Iodine color number, start",[2]; Polymer P2 with stabilizer,3.0
same,"Iodine color number, 60 d 40° C.",[2]; Polymer P3 with stabilizer,3.3
same,"Iodine color number, start",[2]; Polymer P3 with stabilizer,3.1
same,"Iodine color number, 60 d 40° C.",[2]; Polymer P4 with stabilizer,3.3
same,"Iodine color number, start",[2]; Polymer P4 with stabilizer,3.1
same,"Iodine color number, 60 d 40° C.",[2]; [5],3.3
same,"Iodine color number, start",[2]; [5],3.4
same,"Iodine color number, 60 d 40° C.",[2]; Polymer P6 with stabilizer,3.5
same,"Iodine color number, start",[2]; Polymer P6 with stabilizer,3.4
same,"Iodine color number, 60 d 40° C.",[2]; Polymer P7 with stabilizer,3.5
same,"Iodine color number, start",[2]; Polymer P7 with stabilizer,3.4
same,"Iodine color number, 60 d 40° C.",[2]; Polymer P8 with stabilizer,3.5
same,"Iodine color number, start",[2]; Polymer P8 with stabilizer,3.2
same,"Iodine color number, 60 d 40° C.",[2]; Polymer P9 with stabilizer,3.9
same,"Iodine color number, start",[2]; Polymer P9 with stabilizer,3.7
same,"60 d 40° C., yeast assess., 4th inoculation",[3]; Polymer P1,"− (slight growth, max. 100 colonies)"
same,"Start sample measurement, yeast assess., 4th inoculation",[3]; Polymer P2,"− (slight growth, max. 100 colonies)"
same,"60 d 40° C., yeast assess., 4th inoculation",[3]; Polymer P2,"− (slight growth, max. 100 colonies)"
same,"Start sample measurement, yeast assess., 4th inoculation",[3]; Polymer P3,"− (slight growth, max. 100 colonies)"
same,"60 d 40° C., yeast assess., 4th inoculation",[3]; Polymer P3,"− (slight growth, max. 100 colonies)"
same,"Start sample measurement, yeast assess., 4th inoculation",[3]; Polymer P4,"− (slight growth, max. 100 colonies)"
same,"60 d 40° C., yeast assess., 4th inoculation",[3]; Polymer P4,"− (slight growth, max. 100 colonies)"
same,"Start sample measurement, yeast assess., 4th inoculation",[3]; Polymer P5 (HP56),"− (slight growth, max. 100 colonies)"
same,"60 d 40° C., yeast assess., 4th inoculation",[3]; Polymer P5 (HP56),"− (slight growth, max. 100 colonies)"
same,"Start sample measurement, yeast assess., 4th inoculation",[3]; Polymer P6,"− (slight growth, max. 100 colonies)"
same,"60 d 40° C., yeast assess., 4th inoculation",[3]; Polymer P6,"− (slight growth, max. 100 colonies)"
same,"Start sample measurement, yeast assess., 4th inoculation",[3]; Polymer P7,"− (slight growth, max. 100 colonies)"
same,"60 d 40° C., yeast assess., 4th inoculation",[3]; Polymer P7,"− (slight growth, max. 100 colonies)"
same,"60 d 40° C., yeast assess., 4th inoculation",[3]; Polymer P8,"− (slight growth, max. 100 colonies)"
same,"60 d 40° C., yeast assess., 4th inoculation",[3]; Polymer P9,"− (slight growth, max. 100 colonies)"
same,"Physical stability, 60 d 40° C.*",[4]; Polymer P1 with stabilizer,+
same,"Physical stability, 60 d 40° C.*",[4]; Polymer P2 with stabilizer,+
same,"Physical stability, 60 d 40° C.*",[4]; Polymer P3 with stabilizer,+
same,"Physical stability, 60 d 40° C.*",[4]; Polymer P4 with stabilizer,+
same,"Physical stability, 60 d 40° C.*",[4]; [5],+
same,"Physical stability, 60 d 40° C.*",[4]; Polymer P6 with stabilizer,+
same,"Physical stability, 60 d 40° C.*",[4]; Polymer P7 with stabilizer,+
same,"Physical stability, 60 d 40° C.*",[4]; Polymer P8 with stabilizer,+
same,"Physical stability, 60 d 40° C.*",[4]; Polymer P9 with stabilizer,++
